# Earlier results, collected in patent US20150297556A1 (priority 2014, published 2015).
substance,measurement,value
"(1S,5S)-2,6,6-Trimethylbicyclo[3.1.1]hept-2-ene ((−)-α-Pinene)",human pulmonary uptake,60%
